Activity data for 51 compounds are collected here from ChEMBL document CHEMBL3046293, “Fungicidal Activities of -Methoxyphenylacetic Acid Derivatives” (2002).

What all share (type): functional
Assay [1] has as its system Podosphaera fuliginea. The experiment in a line: Fungicidal activity against Podosphaera fuliginea assessed as cucumber powdery mildew disease control at 500 ppm treated 24 hr before inoculation by preventive manner.
In assay [2] the test system is Botrytis cinerea. The experiment in a line: Fungicidal activity against Botryotinia fuckeliana assessed as cucumber gray mold disease control at 500 ppm treated 24 hr before inoculation by preventive manner.
Assay [3] has as its system Pyricularia oryzae. The experiment in a line: Fungicidal activity against Magnaporthe oryzae Cav. race 003 assessed as rice blast disease control at 500 ppm treated 24 hr before inoculation by preventive manner.
The subject of assay [4] is Podosphaera fuliginea. The experiment in a line: Fungicidal activity against Podosphaera fuliginea assessed as cucumber powdery mildew disease control at 125 ppm treated 24 hr before inoculation by preventive manner.
The subject of assay [5] is Podosphaera fuliginea. The experiment in a line: Fungicidal activity against Podosphaera fuliginea assessed as cucumber powdery mildew disease control at 31.3 ppm treated 24 hr before inoculation by preventive manner.
Assay [6] relates to Pyricularia oryzae. Put plainly: Fungicidal activity against Magnaporthe oryzae Cav. race 003 assessed as rice blast disease control at 125 ppm treated 24 hr before inoculation by preventive manner.
Assay [7] deals with Podosphaera fuliginea. Put plainly: Fungicidal activity against Podosphaera fuliginea assessed as cucumber powdery mildew disease control at 7.8 ppm treated 24 hr before inoculation by preventive manner.
Assay [8] deals with Botrytis cinerea. The experiment in a line: Fungicidal activity against Botryotinia fuckeliana assessed as cucumber gray mold disease control at 7.8 ppm treated 24 hr before inoculation by preventive manner.

As to `CNC(=O)C(OC)c1cccc(Oc2ccccc2)c1` (stereo not drawn), the Activity in the assay with Podosphaera fuliginea [1] is less than 90%; with Botrytis cinerea [2], less than 50%; in the assay with Pyricularia oryzae [3], less than 90%.

For `CNC(=O)C(OC)c1cccc(Oc2cccc(C)c2)c1` (stereo not drawn), the Activity is less than 90% with Podosphaera fuliginea [1], less than 50% with Botrytis cinerea [2] and less than 90% in the assay on Pyricularia oryzae [3].

For the compound `CNC(=O)C(OC)c1cccc(Oc2ccc(C)cc2)c1` (stereo not drawn), the Activity in the assay on Podosphaera fuliginea [1] is on record as less than 90%; in the assay with Botrytis cinerea [2], less than 50%; in the assay on Pyricularia oryzae [3], less than 90%.

In the case of `CNC(=O)C(OC)c1cccc(Oc2ccc(C)c(C)c2)c1` (stereo not drawn), the Activity with Botrytis cinerea [2] is less than 50%; in the assay on Pyricularia oryzae [3], less than 90%; in the assay with Podosphaera fuliginea [4], 90%.

Turning to `CNC(=O)C(OC)c1cccc(Oc2cc(C)cc(C)c2)c1` (stereo not drawn), the Activity in the assay on Botrytis cinerea [2] is less than 50%; in the assay on Pyricularia oryzae [3] it was less than 90%; in the assay on Podosphaera fuliginea [5], 90%.

In the case of `COC(=O)C(OC)c1cccc(Oc2ccc(C)c(C)c2)c1` (stereo not drawn), the Activity in the assay on Podosphaera fuliginea [1] was 90%; in the assay with Botrytis cinerea [2], less than 50%; in the assay on Pyricularia oryzae [3] it was less than 90%.

Turning to `COC(=O)C(OC)c1cccc(Oc2cc(C)cc(C)c2)c1` (stereo not drawn), the values for the Activity in the assay on Podosphaera fuliginea [1], in the assay on Botrytis cinerea [2] and in the assay on Pyricularia oryzae [3] were 90%, less than 50% and less than 90%, respectively.

With `COC(=O)C(OC)c1cccc(COc2ccccc2)c1` (stereo not drawn), the Activity in the assay on Botrytis cinerea [2] is less than 50%; with Pyricularia oryzae [3], less than 90%; with Podosphaera fuliginea [4], 90%.

On to `COC(=O)C(OC)c1cccc(COc2ccccc2Cl)c1` (stereo not drawn), for which the Activity in the assay on Pyricularia oryzae [6] turned out to be 90%; in the assay on Botrytis cinerea [2], 50%; with Podosphaera fuliginea [4], 90%.

`COC(=O)C(OC)c1cccc(COc2ccc(Cl)cc2)c1` (stereo not drawn): the Activity with Botrytis cinerea [2] is less than 50%; in the assay with Pyricularia oryzae [3], less than 90%; in the assay on Podosphaera fuliginea [4], 90%.

As to `COC(=O)C(OC)c1cccc(COc2ccccc2C)c1` (stereo not drawn), the Activity in the assay on Pyricularia oryzae [6] is listed as 90%; in the assay on Botrytis cinerea [2], 50%; with Podosphaera fuliginea [4] it was 90%.

Regarding `COC(=O)C(OC)c1cccc(COc2cccc(C)c2)c1` (stereo not drawn), the Activity in the assay on Botrytis cinerea [2] is less than 50%; with Pyricularia oryzae [3], less than 90%; with Podosphaera fuliginea [4], 90%.

Turning to `COC(=O)C(OC)c1cccc(COc2ccc(C)cc2)c1` (stereo not drawn), the values for the Activity with Botrytis cinerea [2], in the assay with Pyricularia oryzae [3] and in the assay on Podosphaera fuliginea [4] were less than 50%, less than 90% and 90%, respectively.

Take `CCc1ccccc1OCc1cccc(C(OC)C(=O)OC)c1` (stereo not drawn): the Activity with Podosphaera fuliginea [1] is reported as less than 90%; with Botrytis cinerea [2] it was less than 50%; in the assay on Pyricularia oryzae [3] it was less than 90%.

For the compound `COC(=O)C(OC)c1cccc(COc2ccc(Cl)cc2Cl)c1` (stereo not drawn), the results for the Activity in the assay on Botrytis cinerea [2], with Pyricularia oryzae [3] and in the assay with Podosphaera fuliginea [7] were less than 50%, less than 90% and 90%, respectively.

Regarding `COC(=O)C(OC)c1cccc(COc2cc(Cl)cc(Cl)c2)c1` (stereo not drawn), the Activity is reported as less than 50% in the assay on Botrytis cinerea [2], less than 90% in the assay on Pyricularia oryzae [3] and 90% with Podosphaera fuliginea [4].

As for `COC(=O)C(OC)c1cccc(COc2cccc(C)c2C)c1` (stereo not drawn), the Activity in the assay with Podosphaera fuliginea [1] is reported as less than 90%; in the assay with Botrytis cinerea [2] it was less than 50%; in the assay with Pyricularia oryzae [3], 90%.

For `COC(=O)C(OC)c1cccc(COc2ccc(C)cc2C)c1` (stereo not drawn), the Activity is less than 90% in the assay on Podosphaera fuliginea [1], 50% in the assay with Botrytis cinerea [2] and 90% with Pyricularia oryzae [3].

`COC(=O)C(OC)c1cccc(COc2cc(C)ccc2C)c1` (stereo not drawn): the Activity in the assay with Podosphaera fuliginea [1] is reported as less than 90%; in the assay with Pyricularia oryzae [6], 90%; with Botrytis cinerea [2], 50%.

On to `CNC(=O)C(OC)c1cccc(COc2ccccc2)c1` (stereo not drawn), for which the Activity is 50% with Botrytis cinerea [2], less than 90% in the assay with Pyricularia oryzae [3] and 90% in the assay with Podosphaera fuliginea [4].

Take `CNC(=O)C(OC)c1cccc(COc2ccccc2F)c1` (stereo not drawn): the Activity in the assay with Botrytis cinerea [2] is given as 50%; in the assay on Pyricularia oryzae [3], 90%; in the assay with Podosphaera fuliginea [5], 90%.

Regarding `CNC(=O)C(OC)c1cccc(COc2ccccc2Cl)c1` (stereo not drawn), the values for the Activity in the assay with Botrytis cinerea [2], in the assay on Pyricularia oryzae [3] and with Podosphaera fuliginea [7] were less than 50%, 90% and 90%, respectively.

`CNC(=O)C(OC)c1cccc(COc2cccc(Cl)c2)c1` (stereo not drawn): the Activity is given as 50% in the assay with Botrytis cinerea [2], less than 90% with Pyricularia oryzae [3] and 90% with Podosphaera fuliginea [5].

In the case of `CNC(=O)C(OC)c1cccc(COc2ccc(Cl)cc2)c1` (stereo not drawn), the Activity in the assay with Botrytis cinerea [2] is recorded as less than 50%; in the assay on Pyricularia oryzae [3] it was less than 90%; with Podosphaera fuliginea [5] it was 90%.

Consider `CNC(=O)C(OC)c1cccc(COc2ccccc2C)c1` (stereo not drawn), for which the Activity was determined as 50% in the assay with Botrytis cinerea [8], 90% with Pyricularia oryzae [3] and 90% in the assay on Podosphaera fuliginea [7].

Consider `CNC(=O)C(OC)c1cccc(COc2cccc(C)c2)c1` (stereo not drawn), for which the Activity in the assay on Botrytis cinerea [2] is given as less than 50%; in the assay on Pyricularia oryzae [3], 90%; in the assay with Podosphaera fuliginea [4], 90%.

`CNC(=O)C(OC)c1cccc(COc2ccc(C)cc2)c1` (stereo not drawn): the Activity in the assay with Botrytis cinerea [2] is less than 50%; with Pyricularia oryzae [3], 90%; in the assay on Podosphaera fuliginea [5] it was 90%.

Turning to `CCc1ccccc1OCc1cccc(C(OC)C(=O)NC)c1` (stereo not drawn), the Activity in the assay on Pyricularia oryzae [6] worked out at 90%; in the assay with Botrytis cinerea [2], 50%; in the assay on Podosphaera fuliginea [7], 90%.

Take `CNC(=O)C(OC)c1cccc(COc2ccccc2OC)c1` (stereo not drawn): the Activity was less than 90% in the assay on Podosphaera fuliginea [1], less than 50% in the assay with Botrytis cinerea [2] and less than 90% in the assay on Pyricularia oryzae [3].

Consider `CNC(=O)C(OC)c1cccc(COc2ccc(Cl)cc2Cl)c1` (stereo not drawn), for which the Activity in the assay with Botrytis cinerea [2] is reported as less than 50%; in the assay with Pyricularia oryzae [3] it was less than 90%; in the assay with Podosphaera fuliginea [7], 90%.

As for `CNC(=O)C(OC)c1cccc(COc2cc(Cl)cc(Cl)c2)c1` (stereo not drawn), the Activity is reported as less than 50% in the assay with Botrytis cinerea [2], less than 90% with Pyricularia oryzae [3] and 90% in the assay on Podosphaera fuliginea [5].

On to `CNC(=O)C(OC)c1cccc(COc2cccc(C)c2C)c1` (stereo not drawn), for which the results for the Activity in the assay with Pyricularia oryzae [6], in the assay with Botrytis cinerea [8] and in the assay with Podosphaera fuliginea [7] were 90%, 50% and 90%, respectively.

For the compound `CNC(=O)C(OC)c1cccc(COc2c(C)cccc2C)c1` (stereo not drawn), the figures for the Activity with Podosphaera fuliginea [1], in the assay on Botrytis cinerea [2] and in the assay with Pyricularia oryzae [3] were less than 90%, less than 50% and less than 90%, respectively.

With `CNC(=O)C(OC)c1cccc(COc2ccc(C)c(C)c2)c1` (stereo not drawn), the Activity with Pyricularia oryzae [6] is 90%; with Botrytis cinerea [2] it was 50%; with Podosphaera fuliginea [5] it was 90%.

Regarding `CNC(=O)C(OC)c1cccc(COc2ccc(C)cc2Cl)c1` (stereo not drawn), the Activity came out at 90% in the assay with Pyricularia oryzae [6], 50% in the assay with Botrytis cinerea [2] and 90% in the assay on Podosphaera fuliginea [7].

Take `CNC(=O)C(OC)c1cccc(COc2cc(C)ccc2Cl)c1` (stereo not drawn): the Activity was found to be 90% in the assay with Pyricularia oryzae [6], 50% in the assay on Botrytis cinerea [8] and 90% in the assay on Podosphaera fuliginea [7].

`CNC(=O)C(OC)c1cccc(COc2ccc(Cl)cc2C)c1` (stereo not drawn): the Activity in the assay on Pyricularia oryzae [6] is reported as 90%; in the assay with Botrytis cinerea [8], 50%; with Podosphaera fuliginea [7], 90%.

As to `CNC(=O)C(OC)c1cccc(COc2ccc(C)cc2OC)c1` (stereo not drawn), the Activity with Podosphaera fuliginea [1] is listed as less than 90%; with Botrytis cinerea [2], 50%; in the assay on Pyricularia oryzae [3] it was less than 90%.

As to `CCOC(C(=O)NC)c1cccc(COc2cc(C)ccc2C)c1` (stereo not drawn), the Activity in the assay with Botrytis cinerea [2] is reported as less than 50%; in the assay with Pyricularia oryzae [3] it was less than 90%; in the assay with Podosphaera fuliginea [7], 90%.

As for `CCCCOC(C(=O)NC)c1cccc(COc2cc(C)ccc2C)c1` (stereo not drawn), the Activity with Botrytis cinerea [2] is less than 50%; in the assay on Pyricularia oryzae [3], less than 90%; with Podosphaera fuliginea [5], 90%.

Regarding `CNC(=O)C(OC(C)=O)c1cccc(COc2cc(C)ccc2C)c1` (stereo not drawn), the Activity in the assay on Podosphaera fuliginea [1] is less than 90%; in the assay on Botrytis cinerea [2], less than 50%; in the assay on Pyricularia oryzae [3] it was less than 90%.

Consider `CNC(=O)C(OCOC)c1cccc(COc2cc(C)ccc2C)c1` (stereo not drawn), for which the Activity in the assay on Podosphaera fuliginea [1] is given as less than 90%; in the assay with Botrytis cinerea [2], less than 50%; in the assay on Pyricularia oryzae [3], less than 90%.

Take `COC(C(=O)O)c1cccc(COc2cc(C)ccc2C)c1` (stereo not drawn): the Activity with Botrytis cinerea [2] is on record as less than 50%; in the assay on Pyricularia oryzae [3], 90%; with Podosphaera fuliginea [7], 90%.

In the case of `COC(C(=O)SC)c1cccc(COc2cc(C)ccc2C)c1` (stereo not drawn), the results for the Activity in the assay on Podosphaera fuliginea [1], in the assay on Botrytis cinerea [2] and in the assay on Pyricularia oryzae [3] were less than 90%, less than 50% and less than 90%, respectively.

For `CCCCNC(=O)C(OC)c1cccc(COc2cc(C)ccc2C)c1` (stereo not drawn), the Activity with Podosphaera fuliginea [1] is recorded as less than 90%; in the assay with Botrytis cinerea [2] it was less than 50%; with Pyricularia oryzae [3] it was less than 90%.

On to `COC(C(N)=O)c1cccc(COc2cc(C)ccc2C)c1` (stereo not drawn), for which the Activity was less than 50% in the assay on Botrytis cinerea [2], 90% in the assay with Pyricularia oryzae [3] and 90% in the assay on Podosphaera fuliginea [5].

On to `COC(C(=O)N(C)C)c1cccc(COc2cc(C)ccc2C)c1` (stereo not drawn), for which the Activity with Botrytis cinerea [2] was less than 50%; in the assay with Pyricularia oryzae [3], 90%; with Podosphaera fuliginea [4], 90%.

Regarding `CNC(=O)C(OC)c1cccc(CSc2cc(C)ccc2C)c1` (stereo not drawn), the Activity in the assay on Podosphaera fuliginea [1] is 90%; in the assay with Botrytis cinerea [2], less than 50%; with Pyricularia oryzae [3], less than 90%.

Turning to `CNC(=O)C(OC)c1cccc(Oc2ccc(Cl)cc2)c1` (stereo not drawn), the figures for the Activity with Podosphaera fuliginea [1], in the assay on Botrytis cinerea [2] and with Pyricularia oryzae [3] were less than 90%, less than 50% and less than 90%, respectively.

Regarding `CNC(=O)C(OC)c1cccc(OCc2ccc(Cl)cc2)c1` (stereo not drawn), the Activity in the assay with Podosphaera fuliginea [1] is given as less than 90%; in the assay on Botrytis cinerea [2], less than 50%; in the assay on Pyricularia oryzae [3], less than 90%.

For `CNC(=O)C(OC)c1cccc(COC(=O)c2ccc(Cl)cc2)c1` (stereo not drawn), the Activity in the assay with Podosphaera fuliginea [1] is given as less than 90%; in the assay on Botrytis cinerea [2], less than 50%; in the assay on Pyricularia oryzae [3], less than 90%.
